The structures appear in SMILES notation. Converted amounts (≈) assume the structure as drawn.

The subject of assay [1] is Burkholderia mallei CHN7. Put plainly: microbe, parasite or virus in culture. The conditions noted are these: CHN7, read-out: MIC B. mallei CHN7. The assay is classed as cell-based.
For assay [2], the system named is Haemophilus influenzae ATCC 33391. Nature of the assay: MIC, spiral gradient endpoint assay (GC II agar, 5% CO2). The conditions noted are these: ATCC33391, read-out: MIC H. influenzae 33391.
For assay [3], the system named is Enterococcus faecalis ATCC 19433. Put plainly: MIC, spiral gradient endpoint assay. Conditions: ATCC19433, 16 h, read-out: MIC E. faecalis 19433.
The target of assay [4] is E. coli RNA polymerase σ70 holoenzyme (Escherichia coli, UniProt P0A8T7+P0A8V2). Put plainly: Fluorescence-detected assay of inhibition of Escherichia coli RNA polymerase. The assay is classed as biochemical. Conditions: RiboGreen fluorescence, read-out: IC50 Ec RNAP. The procedure:
(§1) Fluorescence-detected RNA polymerase assays with E. coli RNA polymerase were performed by a modification of the procedure of Kuhlman et al., 2004 (Kuhlman, P., Duff, H. & Galant, A. (2004) Anal. Biochem. 324, 183-190). Reaction mixtures contained (20 μl): 0-100 nM test compound, 75 nM E. coli RNA polymerase σ^70 holoenzyme, 20 nM 384 by DNA fragment containing the bacteriophage T4 N25 promoter, 100 μM ATP, 100 μM GTP, 100 μM UTP, 100 μM CTP, 50 mM Tris-HCl, pH 8.0, 100 mM KCl, 10 mM MgCl2, 1 mM DTT, 10 μg/ml bovine serum albumin, and 5.5% glycerol. Reaction components other than DNA and NTPs were pre-incubated for 10 mm at 37° C. Reactions were carried out by addition of DNA and incubation for 5 min at 37° C., followed by addition of NTPs and incubation for 60 min at 37° C. DNA was removed by addition of 1 μl 5 mM CaCl2 and 2 U DNaseI (Ambion, Inc.), followed by incubation for 90 min at 37° C. RNA was quantified by addition of 100 μl RiboGreen RNA Quantitation Reagent (Invitrogen, Inc.; 1:500 dilution in Tris-HCl, pH 8.0, 1 mM EDTA), followed by incubation for 10 min at 25° C., followed by measurement of fluorescence intensity [excitation wavelength=485 nm and emission wavelength=535 nm; QuantaMaster QMI spectrofluorometer (PTI, Inc.)]. IC50 was defined as the concentration of inhibitor resulting in 50% inhibition of RNA polymerase activity.

The subject of assay [5] is Escherichia coli D21f2tolC. Put plainly: MIC, spiral gradient endpoint assay. Conditions: 16 h, read-out: MIC E. coli D21f2tolC.
The test system of assay [6] is Staphylococcus aureus ATCC 12600. Nature of the assay: MIC, spiral gradient endpoint assay. The conditions noted are these: ATCC12600, 16 h, read-out: MIC S. aureus 12600.
Assay [7] concerns Moraxella catarrhalis ATCC 25238. Put plainly: MIC, spiral gradient endpoint assay (GC II agar, 5% CO2). The conditions noted are these: ATCC25238, read-out: MIC M. catarrhalis 25238.
Assay [8] has as its system Mycobacterium tuberculosis H37Rv. Nature of the assay: MIC, microplate Alamar Blue assay. Conditions: read-out: MIC M. tuberculosis H37Rv. On the technique in general: Alamar Blue is a resazurin reagent that responds to reducing activity.
Assay [9] addresses S. aureus RNA polymerase core enzyme + S. aureus σA (Staphylococcus aureus, UniProt P47768+Q2G0N5). Put plainly: Fluorescence-detected assay of inhibition of Staphylococcus aureus RNA polymerase. The assay is classed as biochemical. The conditions noted are these: read-out: IC50 Sa RNAP. The protocol:
as §1
Fluorescence-detected RNA polymerase assays with S. aureus RNA polymerase were performed as in Example 17.1, using reaction mixtures containing (20 μl): 0-100 nM test compound, 75 nM S. aureus RNA polymerase core enzyme, 300 nM S. aureus σ^A, 20 nM 384 by DNA fragment containing the bacteriophage T4 N25 promoter, 100 μM ATP, 100 μM GTP, 100 μM UTP, 100 μM CTP, 40 mM Tris-HCl, pH 8.0, 80 mM NaCl, 5 mM MgCl2, 2.5 mM DTT, and 12.7% glycerol. IC50 was defined as the concentration of inhibitor resulting in 50% inhibition of RNA polymerase activity.

Assay [10] has as its system Bacillus anthracis Vollum 1B. Nature of the assay: microbe, parasite or virus in culture. The assay is classed as cell-based. Conditions: VOLLUM1B, read-out: MIC B. anthracis Vollum-1b.
Assay [11] concerns H. influenzae 49247. Put plainly: MIC, spiral gradient endpoint assay (GC II agar, 5% CO2). Conditions: Haemophilus influenzae, 49247, read-out: MIC H. influenzae 49247.
The target of assay [12] is M tuberculosis RNA polymerase core enzyme + M. tuberculosis σA (Mycobacterium tuberculosis, UniProt P9WGY7+P9WGY9). Put plainly: Fluorescence-detected assay of inhibition of Mycobacterium tuberculosis RNA polymerase. The assay is classed as biochemical. The conditions noted are these: read-out: IC50 Mt RNAP. The protocol:
as §1
Fluorescence-detected RNA polymerase assays with M tuberculosis RNA polymerase were performed as in Example 17.1, using reaction mixtures containing (20 μl): 0-100 nM test compound, 75 nM M tuberculosis RNA polymerase core enzyme, 300 nM M. tuberculosis σ^A, 20 nM 384 by DNA fragment containing the bacteriophage T4 N25 promoter, 100 μM ATP, 100 μM GTP, 100 μM UTP, 100 μM CTP, 40 mM Tris-HCl, pH 8.0, 80 mM NaCl, 5 mM MgCl2, 2.5 mM DTT, and 12.7% glycerol. IC50 was defined as the concentration of inhibitor resulting in 50% inhibition of RNA polymerase activity.

Assay [13] concerns Francisella tularensis SCHU4. Put plainly: microbe, parasite or virus in culture. The assay is classed as cell-based. The conditions noted are these: SCHU4, read-out: MIC F. tularensis SCHU4.

S. aureus RNA polymerase core enzyme + S. aureus σA, sequence (P0A0J0 whole entry): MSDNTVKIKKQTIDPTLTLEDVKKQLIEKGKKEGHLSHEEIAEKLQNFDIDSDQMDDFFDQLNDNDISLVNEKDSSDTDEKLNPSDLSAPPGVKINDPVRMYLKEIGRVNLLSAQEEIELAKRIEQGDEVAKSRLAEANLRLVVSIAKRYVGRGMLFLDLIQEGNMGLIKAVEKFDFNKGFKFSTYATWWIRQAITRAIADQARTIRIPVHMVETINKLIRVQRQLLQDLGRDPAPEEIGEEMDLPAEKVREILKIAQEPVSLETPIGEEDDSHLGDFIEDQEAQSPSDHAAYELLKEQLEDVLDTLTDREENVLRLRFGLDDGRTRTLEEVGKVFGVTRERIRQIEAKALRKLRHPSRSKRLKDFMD
S. aureus RNA polymerase core enzyme + S. aureus σA, sequence (P47768 whole entry): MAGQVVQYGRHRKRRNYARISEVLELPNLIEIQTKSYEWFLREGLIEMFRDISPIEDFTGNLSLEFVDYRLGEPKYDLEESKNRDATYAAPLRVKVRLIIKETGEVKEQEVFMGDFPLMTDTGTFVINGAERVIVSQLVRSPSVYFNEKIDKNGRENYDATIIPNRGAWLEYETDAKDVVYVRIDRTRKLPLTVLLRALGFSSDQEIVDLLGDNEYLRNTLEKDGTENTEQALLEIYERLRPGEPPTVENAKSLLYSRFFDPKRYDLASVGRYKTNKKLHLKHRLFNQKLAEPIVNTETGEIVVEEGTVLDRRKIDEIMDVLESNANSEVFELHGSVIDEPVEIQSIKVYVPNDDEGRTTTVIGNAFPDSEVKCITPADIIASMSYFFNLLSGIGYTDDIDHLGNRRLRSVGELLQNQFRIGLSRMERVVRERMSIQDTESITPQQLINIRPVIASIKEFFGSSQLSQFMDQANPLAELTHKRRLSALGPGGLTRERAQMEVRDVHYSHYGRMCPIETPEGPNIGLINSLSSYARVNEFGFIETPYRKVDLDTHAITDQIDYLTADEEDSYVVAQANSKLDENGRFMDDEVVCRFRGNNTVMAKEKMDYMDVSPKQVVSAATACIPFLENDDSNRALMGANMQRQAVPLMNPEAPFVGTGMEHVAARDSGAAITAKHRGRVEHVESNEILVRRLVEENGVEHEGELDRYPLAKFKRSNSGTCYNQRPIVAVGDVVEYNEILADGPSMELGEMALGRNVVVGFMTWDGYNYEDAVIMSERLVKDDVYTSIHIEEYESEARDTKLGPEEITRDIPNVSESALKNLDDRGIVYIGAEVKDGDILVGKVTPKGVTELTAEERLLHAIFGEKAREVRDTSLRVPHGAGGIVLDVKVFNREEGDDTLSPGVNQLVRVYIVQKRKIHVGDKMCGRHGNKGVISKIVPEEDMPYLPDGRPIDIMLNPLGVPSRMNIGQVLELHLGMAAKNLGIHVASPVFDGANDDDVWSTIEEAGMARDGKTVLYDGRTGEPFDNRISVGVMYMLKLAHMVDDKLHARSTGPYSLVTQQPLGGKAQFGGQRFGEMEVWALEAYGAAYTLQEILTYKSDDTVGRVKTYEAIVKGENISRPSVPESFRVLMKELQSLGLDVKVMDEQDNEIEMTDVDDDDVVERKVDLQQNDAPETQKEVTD
S. aureus RNA polymerase core enzyme + S. aureus σA, sequence (Q2G0N5 whole entry): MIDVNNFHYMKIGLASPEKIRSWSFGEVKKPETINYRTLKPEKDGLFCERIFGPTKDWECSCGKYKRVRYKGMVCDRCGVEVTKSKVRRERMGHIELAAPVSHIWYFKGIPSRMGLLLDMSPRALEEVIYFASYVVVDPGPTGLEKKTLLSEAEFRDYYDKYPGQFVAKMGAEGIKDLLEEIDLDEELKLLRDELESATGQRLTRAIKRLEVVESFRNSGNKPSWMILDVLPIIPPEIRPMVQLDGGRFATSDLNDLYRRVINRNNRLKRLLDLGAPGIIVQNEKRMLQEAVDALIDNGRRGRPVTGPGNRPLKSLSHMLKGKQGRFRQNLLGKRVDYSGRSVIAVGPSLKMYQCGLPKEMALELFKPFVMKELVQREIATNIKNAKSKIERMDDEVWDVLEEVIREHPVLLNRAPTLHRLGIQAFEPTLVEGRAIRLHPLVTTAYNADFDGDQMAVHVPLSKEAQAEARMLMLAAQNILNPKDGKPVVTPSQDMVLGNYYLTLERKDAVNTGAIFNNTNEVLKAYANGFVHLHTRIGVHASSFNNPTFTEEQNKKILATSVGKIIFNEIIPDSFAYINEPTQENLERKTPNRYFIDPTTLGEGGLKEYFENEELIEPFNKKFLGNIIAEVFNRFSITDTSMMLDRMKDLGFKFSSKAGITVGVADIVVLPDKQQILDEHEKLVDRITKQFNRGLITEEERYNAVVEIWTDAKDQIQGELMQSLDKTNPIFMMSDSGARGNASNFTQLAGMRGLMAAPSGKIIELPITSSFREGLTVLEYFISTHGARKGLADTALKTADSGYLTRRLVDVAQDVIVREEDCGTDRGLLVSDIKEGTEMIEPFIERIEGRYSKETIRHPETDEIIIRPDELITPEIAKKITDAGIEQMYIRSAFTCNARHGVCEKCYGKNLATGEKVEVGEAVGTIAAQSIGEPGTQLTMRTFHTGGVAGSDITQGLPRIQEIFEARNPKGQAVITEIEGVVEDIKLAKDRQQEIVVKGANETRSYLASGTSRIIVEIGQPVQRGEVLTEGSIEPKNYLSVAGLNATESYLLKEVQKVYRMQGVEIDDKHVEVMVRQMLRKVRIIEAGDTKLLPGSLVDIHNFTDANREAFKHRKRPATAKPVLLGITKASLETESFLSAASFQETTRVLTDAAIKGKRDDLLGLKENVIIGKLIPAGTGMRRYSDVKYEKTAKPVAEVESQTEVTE
S. aureus RNA polymerase core enzyme + S. aureus σA, sequence (Q2FW32 whole entry, further chain): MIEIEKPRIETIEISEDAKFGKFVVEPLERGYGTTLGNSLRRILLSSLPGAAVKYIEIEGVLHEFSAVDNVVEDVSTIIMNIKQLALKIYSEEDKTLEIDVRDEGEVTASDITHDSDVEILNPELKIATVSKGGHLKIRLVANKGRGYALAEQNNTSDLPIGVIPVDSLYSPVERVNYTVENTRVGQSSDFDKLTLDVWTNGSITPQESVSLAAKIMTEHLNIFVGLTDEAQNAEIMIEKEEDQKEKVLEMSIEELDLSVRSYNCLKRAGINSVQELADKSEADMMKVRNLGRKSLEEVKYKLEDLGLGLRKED

Consider `COc1cccc(CCC(=O)c2c(O)cc(O)cc2O)c1` [OMTK15, 3-(3-methoxyphenyl)propanoyl-phloroglucinol], for which the MIC in assay [1] was above 50 µg/mL; in assay [2], above 40 µg/mL; in [3] it was above 40 µg/mL; in [5], 12 µg/mL (≈ 41.6 µM); in assay [6] it was above 40 µg/mL; in assay [7], above 40 µg/mL. Moreover, the MIC is 50 µg/mL (≈ 173 µM) in assay [8], 25 µg/mL (≈ 86.7 µM) in assay [10], above 40 µg/mL in assay [11] and 12.5 µg/mL (≈ 43.4 µM) in [13]. Moreover, the concentration for half-maximal inhibition (IC50) in assay [4] was 3 µM; in [9], 7.2 µM; in [12], 3 µM.

What is called IC50 is the point on the concentration scale where inhibition reaches its midpoint.

(Values after patent US9517994B2, “Antibacterial agents: phloroglucinol derivatives” (Rutgers, the State University of New Jersey, priority 2012, dated 2016).)
